Where two headings read alike, the source gives them in different places.
Columns and labels:
CYP2D6 [1] = tested on: CYP2D6
canine parietal cells = details: isolated canine parietal cells; (+) versus (−) enantiomer; Nagaya et al.; cited from earlier work
CYP3A4 = CYP3A4 (Homo sapiens, UniProt P08684); assay: metabolism by CYP3A4
[2] = pharmacokinetic and duration profile of the S(−) isomer; format: in vivo; details: compared with racemic lansoprazole
Excerpt: Syndrome, psoriasis and other disorders, including those that would benefit from an inhibitory action on H^+, K^+-ATPase in that it provides this effective treatment while substantially reducing the adverse effects of racemic lansoprazole including, but not limited to, hepatocellular neoplasia, gastric carcinoids, headache, diarrhea and skin alterations.

stability at low pH = format: physicochemical
Excerpt: The terms “pharmaceutically acceptable salts” or “a pharmaceutically acceptable salt thereof” refer to salts prepared from pharmaceutically acceptable non-toxic bases. […] Suitable pharmaceutically acceptable base addition salts for the compound of the present invention include metallic salts of aluminum, calcium, lithium, magnesium, potassium, sodium, titanium and zinc or organic salts made from lysine, N,N′-dibenzylethylenediamine, chloroprocaine, choline, diethanolamine, ethylenediamine, meglumine (N-methylglucamine) and procaine. If any salt is to be used, sodium salts are preferred.

CYP2D6 [3] = assay: metabolism by CYP2D6; details: CYP2D6 is the polymorphically expressed enzyme
[4] = in humans; cited from earlier work
gastric acid secretion = details: in humans; cited from earlier work
serum gastrin = details: humans, on administration; cited from earlier work
[5] = tested on: hepatic drug metabolizing enzyme systems; details: relative to omeprazole; cited from earlier work

Chain of CYP3A4 (P08684 whole entry): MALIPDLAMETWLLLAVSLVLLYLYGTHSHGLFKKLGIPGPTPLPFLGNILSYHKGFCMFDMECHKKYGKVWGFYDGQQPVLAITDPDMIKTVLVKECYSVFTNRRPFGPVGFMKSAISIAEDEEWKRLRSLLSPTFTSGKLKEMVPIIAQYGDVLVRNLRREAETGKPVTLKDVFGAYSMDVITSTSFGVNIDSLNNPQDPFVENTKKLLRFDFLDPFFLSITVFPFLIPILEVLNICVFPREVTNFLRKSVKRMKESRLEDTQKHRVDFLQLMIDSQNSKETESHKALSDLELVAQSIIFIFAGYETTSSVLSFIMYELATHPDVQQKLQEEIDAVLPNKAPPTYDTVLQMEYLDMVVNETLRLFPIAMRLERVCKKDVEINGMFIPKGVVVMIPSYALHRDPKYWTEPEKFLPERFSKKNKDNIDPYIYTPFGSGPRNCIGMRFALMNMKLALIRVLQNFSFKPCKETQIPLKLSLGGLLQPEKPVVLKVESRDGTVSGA

Structure (SMILES) | metabolism by CYP2D6 (CYP2D6 [1]) | effect on acid formation stimulated by db-cAMP (canine parietal cells) | metabolism by CYP3A4 (CYP3A4) | AUC (area under the curve) [2] | duration [2] | first pass metabolism [2] | onset [2] | stability at low pH (stability at low pH) | metabolism by CYP2D6 (CYP2D6 [3]) | serum half-life [4] | duration of the acid inhibitory effect (gastric acid secretion) | fasting serum gastrin levels (serum gastrin) | effects on hepatic drug metabolizing enzyme systems [5]
Cc1c(OCC(F)(F)F)ccnc1C[S@@+]([O-])c1nc2ccccc2[nH]1 [R(+) lansoprazole, reference compound] | metabolized only by CYP2D6 | almost identical | metabolized only by CYP2D6 |  |  |  |  |  |  |  |  |  | 
Cc1c(OCC(F)(F)F)ccnc1C[S+]([O-])c1nc2ccccc2[nH]1 (single isomer, unassigned; (-)) [S(−) lansoprazole, (−) isomer of 2-[3-methyl-4-(2,2,2-trifluoroethoxy)pyrid-2-yl]methylsulfinyl-benzimidazole] |  | almost identical | metabolized by both CYP2D6 and CYP3A4 | higher AUC | longer duration | lower first pass metabolism | more rapid onset | unstable at low pH | metabolized by both CYP2D6 and CYP3A4 |  |  |  | 
Cc1c(OCC(F)(F)F)ccnc1C[S+]([O-])c1nc2ccccc2[nH]1 (racemic) [racemic lansoprazole, 2-[3-methyl-4-(2,2,2-trifluoroethoxy)pyrid-2-yl]methylsulfinyl-benzimidazole] |  |  |  |  |  |  |  |  |  | about 1.5 hours | about 24 hours | significantly elevated | comparable to omeprazole

From patent publication US20040224989A1, “S-lansoprazole compositions and methods” (priority 1999, published 2004)
